Data reported in patent publication US20120003298A1, “METHODS FOR INDUCING AN IMMUNE RESPONSE” (priority 2010, published 2012).
pEC50: −log10 of the molar value. Like-named read-outs stand apart in the source and are kept apart here.

Legend:
RAW.264 cells = assay: Intracellular uptake in RAW.264 cells, LC-MS; type: in vitro ADME; details: 10 microM
Description: 5×10^6 RAW.264 cells were adhered overnight in 10 cm tissue culture dishes. […] […] Supernatant (2 ml) and cells (pellets) were collected by trypsinization and frozen at […] for subsequent analysis by LC-MS.

[1] = Metabolic profiling in rabbit plasma, LC/MS/MS; type: in vitro ADME
Description: (§1) Before the analysis of the incubated samples, compound A was infused manually to understand parent fragmentation. Infusion was performed by diluting a 50 mM solution in DMSO to 1 μM with ACN/MeOH 1/1. Sample solution was infused into the ion trap source at a flow rate of 4 μl/min.
(§2) Incubated samples were analyzed on a HPLC (Waters) interfaced with an Ion Trap HCT ultra (Bruker Daltonics).
(§3) Assignment of the structures was done by comparison of the MS/MS analysis of the spectra with the parent spectrum.
(§4) Metabolic profiling was studied in rabbit and human plasma. In both matrixes the parent compound (50 uM starting concentration) was totally metabolized at the last time point. Metabolites were detected in Full scan and peaks were assigned by MH+ and MS/MS spectra.

[2] = Solubility, method of the European Pharmacopoeia 6.0; type: physicochemical
Description: The method reported in the European Pharmacopoeia 6.0 was used.
Batch CH730/16/8g was tested according to the method described in E. Ph: DMSO was added in 0.1 mL portions to 103.7 mg of product and the suspension was shaken with a Vortex instrument for 3 min after each addition.
The batches CH730/16/8c, CH730/16/8g and CH730/23/8e were then tested stirring each suspension for a longer time; 100 mg of each batch dissolved completely in 0.2 mL of DMSO after stirring for 30 minutes.

human whole blood = assay: Cytokine secretion in human whole blood assay, ELISA; type: cell-based; details: Homo sapiens
Description: Before drawing the blood, the compounds were added to 96 well round bottom plates in a 10× diluted sample at 20 ul. The compounds were diluted in RPMI media without serum but with antibiotics. Antibiotics were added at a 10× concentration. After drawing the blood, the whole blood sample was gently mixed to obtain a homogeneous sample, and 180 ul was added to each well.
All compounds were setup in concentrations at 0-0.01-0.03-0.1-0.5-2.0-10.0 micromolar as the final concentration. Vehicle control was DMSO control, where we used the highest concentration used for the compounds. After addition of blood, all plates were gently agitated at 37° C. and 5% CO2 until harvest.
For the 6 hours time point, the plate was centrifuged 500×g. Supernatant (SN) was transferred to a tube and centrifuged at 10.000×g for 10 min to get rid of cells and protein aggregates. The clarified supernatant was frozen at −80° C. until analysis.
The SN was removed to another tube and centrifuged at 10.000×g for 10 min. to get rid of aggregates etc. The clarified supernatant was frozen at −80° C. until analysis.
Concentrations of cytokines were determined by ELISA from R&D Systems. The results were analyzed in Graph Pad Prism in order to prepare dose-response
curves, and for determination of EC50 values. FACS analysis was made by using Becton-Dickinson FACSDiva software and subsequently illustrated in Graph Pad Prism.

[3] = Stability on storage by HPLC (solid or chloroform solution; temperature, light)
Description: At this point, a stability study was conducted on batch CH730/16/8g.
The samples were analyzed at t=0 and after 20 days.

[4] = system: mouse macrophage cell line Raw264.7; assay: IL-6 and TNF-alpha secretion in Raw264.7 cells (Model 1), ELISA; type: cell-based; details: Mus musculus, RAW264.7, Raw 264.7, 24 hours, 7 doses
[5] = system: recombinant antigens from Plasmodium falciparum and Mycobacterium ulcerans; assay: Pilot immunization study with adjuvanted recombinant protein antigens; type: in vivo, mouse; details: subcutaneous, 10 nMol
Description: A pilot immunization study was conducted using Compound A and SC12 adjuvanted protein antigens. The immunization experiments were performed with two recombinant proteins expressed in E. coli. One antigen was derived from the malaria parasite Plasmodium falciparum and the other one from Mycobacterium ulcerans, which cause the ulcerative skin disease Buruli ulcer.

PBMCs = assay: IL-6 and TNF-alpha secretion in PBMC model (Model 2), ELISA; type: cell-based, human; details: Homo sapiens, PBMC
[6] = Metabolic profiling in human plasma, LC/MS/MS; type: in vitro ADME
Description: as §1, §2, §3, §4

## CCCCCCCC/C=C\CCCCCCCC(=O)OCC(COP(=O)(O)OCCNC(=O)c1ccc(Cn2c(=O)[nH]c3c(N)nc(OCCOC)nc32)cc1)OC(=O)CCCCCCC/C=C\CCCCCCCC (centres unmarked) [Compound A, 2-(4-((6-amino-2-(2-methoxyethoxy)-8-oxo-7H-purin-9(8H)-yl)methyl)benzamido)ethyl 2,3-bis(oleoyloxy)propyl phosphate]
RAW.264 cells; Incubation 1 hours
  Intracellular Concentration % of total: 5.50 % of total
RAW.264 cells; Incubation 6 hours
  Intracellular Concentration % of total: 4.27 % of total
RAW.264 cells; Incubation 16 hours
  Intracellular Concentration % of total: 1.53 % of total
[1]
  metabolism in plasma: highly metabolized by esterases
[2]
  solubility in DMSO: soluble
[2]; chloroform, organic solvent or mixture, thermodynamic from solid
  solubility: 100 mg/mL
[2]; organic solvent or mixture, thermodynamic from solid, batch Ch730/16/8g, DMSO added in 0.1 mL portions, Vortex 3 min after each addition
  solubility at 3 min: 259 mg/mL
[2]; organic solvent or mixture, thermodynamic from solid, three batches, 100 mg in 0.2 mL of DMSO after stirring for 30 minutes
  solubility at 30 min: 500 mg/mL
Human whole blood; 6 h, read-out: EC50-IFN-alpha, 6 h Incubation, Donor 1, whole blood
  pEC50: 5.93
Human whole blood; 6 h, read-out: EC50-IFN-alpha, 6 h Incubation, Donor 2, whole blood
  pEC50: 5.74
Human whole blood; 6 h, read-out: EC50-IFN-alpha, 6 h Incubation, Donor 3, whole blood
  pEC50: 5.71
Human whole blood; 6 h, read-out: EC50-IL-6, 6 h Incubation, Donor 1, whole blood
  pEC50: 6.03
Human whole blood; 6 h, read-out: EC50-IL-6, 6 h Incubation, Donor 2, whole blood
  pEC50: 6.20
Human whole blood; 6 h, read-out: EC50-IL-6, 6 h Incubation, Donor 3, whole blood
  pEC50: 6.28
Human whole blood; 6 h, read-out: EC50-IL-12, 6 h Incubation, Donor 1, whole blood, IL-12p40
  pEC50: 5.64
Human whole blood; 6 h, read-out: EC50-IL-12, 6 h Incubation, Donor 2, whole blood, IL-12p40
  pEC50: 5.68
Human whole blood; 6 h, read-out: EC50-IL-12, 6 h Incubation, Donor 3, whole blood, IL-12p40
  pEC50: 5.46
Human whole blood; 24 h, read-out: EC50-IFN-alpha, 24 h Incubation, Donor 1
  pEC50: 6.62
Human whole blood; 24 h, read-out: EC50-IFN-alpha, 24 h Incubation, Donor 2
  pEC50: 6.33
Human whole blood; 24 h, read-out: EC50-IFN-alpha, 24 h Incubation, Donor 3
  pEC50: 6.46
Human whole blood; 24 h, read-out: EC50-IL-6, 24 h Incubation, Donor 1
  pEC50: 6.28
Human whole blood; 24 h, read-out: EC50-IL-6, 24 h Incubation, Donor 2
  pEC50: 6.49
Human whole blood; 24 h, read-out: EC50-IL-6, 24 h Incubation, Donor 3
  pEC50: 6.54
Human whole blood; 24 h, read-out: EC50-IL-10, 24 h Incubation, Donor 1
  pEC50: 5.89
Human whole blood; 24 h, read-out: EC50-IL-10, 24 h Incubation, Donor 2
  pEC50: 6.07
Human whole blood; 24 h, read-out: EC50-IL-10, 24 h Incubation, Donor 3
  pEC50: 5.64
Human whole blood; 24 h, whole blood, read-out: EC50-IL-12p40, 24 h Incubation, Donor 1
  pEC50: 5.54
Human whole blood; 24 h, whole blood, read-out: EC50-IL-12p40, 24 h Incubation, Donor 2
  pEC50: 5.56
Human whole blood; 24 h, whole blood, read-out: EC50-IL-12p40, 24 h Incubation, Donor 3
  pEC50: 5.39
[3]; T>25° C. and in the presence of light
  degradation: rapid degradation
[3]; batch CH730/16/8g, solid
  degradation of solid samples: almost completely degraded after few days
[3]; room temperature and/or in the presence of light
  stability: not a stable compound
[4]; read-out: EC 50 IL 6
  pEC50: 8.22
[4]; read-out: EC 50 TNF-alpha
  pEC50: 8.05
[5]
  local side effects: No local side effects
PBMCs; 24 hours, read-out: TNF-alpha secretion, Donor 1 MC50
  pEC50: 6.19
PBMCs; 24 hours, read-out: TNF-alpha secretion, Donor 2 MC50
  pEC50: 6.18
PBMCs; 24 hours, read-out: TNF-alpha secretion, Donor 3 MC50
  pEC50: 6.19
PBMCs; average of three donors, read-out: IL-6 secretion, Average EC50
  pEC50: 6.31
PBMCs; average of three donors, read-out: TNF-alpha secretion, Average EC50
  pEC50: 6.19
[6]
  metabolism in plasma: highly metabolized by esterases
